From PubChem BioAssay (NCI)
“And” between values parts separate entries of the source, which are not always exact repeats. Identical values can stand only once.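 Step 1: Grow cells in 96-well plates. Step 2: Expose to compound for 48 hours at 5 concentrations. Step 3: Interpolate endpoints linearly; if unreached, use highest concentration. At the GI50, growth is halved. At the TGI there is no net growth.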

tested on: SF-539 CNS; test: NCI-60 cell line screen, 48 h

Compound	TGI [µM]	GI50 [µM]
O=C(O)CCc1coc2ccc(O)cc12	> 100	–
Clc1cc2nsnc2c(Cl)n1	46.1	–
N#CC1C(C#N)C2(c3ccccc3)C(c3ccccc3)=NN(c3ccccc3)CC12 (stereo not drawn)	> 100	–
COc1cc(Cc2cnc(/N=C3\C(=O)N(CN4CCN(c5c(F)cc6c(=O)c(C(=O)O)cn(C7CC7)c6c5OC)CC4C)c4ccc(F)cc43)nc2N)cc(OC)c1OC (stereo not drawn)	47.5	19.9
Cc1cccc2c(=O)cc(-c3ccccc3)[nH]c12	37.1	–
CN1C(=O)C(C)(C)C2(SC(C)(C)C2(C)C)N(C)C1=S (stereo not drawn)	> 100	–
CC(=O)NNc1nc(C)c(C(=O)NNC(=O)C(=O)Nc2ccc(Cl)cc2)s1	> 100	–
CN/N=C(/Cc1occc(=O)c1O)C(=O)Nc1ccccc1C	> 100	–
Cc1coc2c1CC1(C)C(CCC(O)C1C)C2 (stereo not drawn)	> 100	–
CC1=C(C(=O)NCc2ccccc2)C(/C=C/c2ccccc2)C(C(=O)NCc2ccccc2)=C(C)N1	> 100	–
N#CCCN(CCC#N)c1ccc(/C=C2\N=C(c3cc([N+](=O)[O-])ccc3Cl)OC2=O)cc1	> 100	–
CSc1nc2c(c(=O)[nH]1)N=C1c3ccccc3C(=O)C1C(c1ccccc1)N2 (stereo not drawn)	17.9	2.84
CC1=C(C(=O)Nc2ccc(Cl)c(Cl)c2)C(c2cccc(Oc3ccccc3)c2)NC(=S)N1 (stereo not drawn)	13	6.6
O=C1/C(=C/c2ccccc2)CN(C(=O)C(Cl)(Cl)Cl)C/C1=C\c1ccccc1	9.91	–
Cc1ccc(NC2=C(Cl)C(=O)N(Cc3ccccc3)C2=O)cc1O	76	25
C=C1C(=O)C23CC1CCC2C12CO[C@@H]4OCC(C)(CC[C@@H]1OC3=O)C42 (stereo partly drawn)	14.8	–

tested on: SNB-75 CNS; test: NCI-60 cell line screen, 48 h

Compound	TGI [µM]	GI50 [µM]
CCN(CCO)CC1CCCC2CCCCC21 (stereo not drawn)	> 100	–
CC[C@@]1(O)C[C@H](OC2CC(N(C)C)C(O)C(C)O2)c2c(O)c3c(c(O)c2[C@H]1OC1CC(N(C)C)C(O)C(C)O1)C(=O)c1cccc(O)c1C3=O (stereo partly drawn)	–	< 0.01
COC1(OC)CCC2C1C1CCC(OC)(OC)C21 (stereo not drawn)	> 50	–
NNC(=O)Nc1cccnc1	> 100	–
CC/C=C\CCC/C=C1/C(=O)C=C[C@@H]1C/C=C\CCCC(=O)OC	28.5	13.7
CCCCCCCCCCCOc1ccc(C(=O)C(=O)c2ccc(OCCCCCCCCCCC)c(OCCCCCCCCCCC)c2)cc1OCCCCCCCCCCC	95.7	–
Cn1cnc([N+](=O)[O-])c1Sc1nnc(-c2cccnc2)n1C	> 100	–
CCOC(=O)C1=C(C)NC(=S)NC1c1ccccc1 (stereo not drawn)	> 100	–
COC1=CC(=O)c2nc(-c3ccncc3)[nH]c2C1=O	> 100	88.3
O=C(/C=C/c1ccccc1)NC1C=Nc2ccc(Cl)cc2NC1=O (stereo not drawn)	62.9	–
COC1CCC2C(NS(=O)(=O)c3ccc(C)cc3)CCCC2O1 (stereo not drawn) (tested in a mixture with another compound)	> 34.5	–
CC(C)C/C(CC(=O)CCC(=O)Nc1ccccc1[N+](=O)[O-])=N\NC(=O)c1cc2ccccc2cc1O	> 100	–
O=C1/C(=C/c2cccc([N+](=O)[O-])c2)COc2ccc(O)cc21	14.9	2.63
O=C(O)c1ccccc1[Se][Se]c1ccccc1C(=O)O	> 100	–
O=C(O)CCc1coc2ccc(O)cc12	> 100	–
N#CC1C(C#N)C2(c3ccccc3)C(c3ccccc3)=NN(c3ccccc3)CC12 (stereo not drawn)	> 100	–
Cc1cccc2c(=O)cc(-c3ccccc3)[nH]c12	9.26	–
Cc1nc2ccccc2c(=O)n1-c1ccccc1I	> 100	–
CN1C(=O)C(C)(C)C2(SC(C)(C)C2(C)C)N(C)C1=S (stereo not drawn)	> 100	–
CC1(C)CCc2c(c3c(c4c(=O)c(O)c(-c5ccc(O)cc5)oc24)OC(C)(C)CC3)O1	41.9	19.5
Cc1coc2c1CC1(C)C(CCC(O)C1C)C2 (stereo not drawn)	> 100	–
CC1=C(C(=O)NCc2ccccc2)C(/C=C/c2ccccc2)C(C(=O)NCc2ccccc2)=C(C)N1	> 100	–
N#CCCN(CCC#N)c1ccc(/C=C2\N=C(c3cc([N+](=O)[O-])ccc3Cl)OC2=O)cc1	> 100	–
CSc1nc2c(c(=O)[nH]1)N=C1c3ccccc3C(=O)C1C(c1ccccc1)N2 (stereo not drawn)	8.78	1.27
CC1=C(C(=O)Nc2ccc(Cl)c(Cl)c2)C(c2cccc(Oc3ccccc3)c2)NC(=S)N1 (stereo not drawn)	18.4	8.26
Cc1cc(C)nc(NS(=O)(=O)c2ccc(NC(=O)c3ccc(Cl)c4c(Nc5ccc(S(=O)(=O)Nc6nc(C)cc(C)n6)cc5)c5ccccc5nc34)cc2)n1	> 100	–
N#CC(c1ccc(Cl)cc1)c1cccc(C(C#N)c2ccc(Cl)cc2)n1 (stereo not drawn)	79.4	–
O=C1/C(=C/c2ccccc2)CN(C(=O)C(Cl)(Cl)Cl)C/C1=C\c1ccccc1	12.3	–
C=C1C(=O)C23CC1CCC2C12CO[C@@H]4OCC(C)(CC[C@@H]1OC3=O)C42 (stereo partly drawn)	30.8	–

tested on: NCI-H23 lung; test: NCI-60 cell line screen, 48 h

Compound	TGI [µM]	GI50 [µM]
CCN(CCO)CC1CCCC2CCCCC21 (stereo not drawn)	> 100	–
CC[C@@]1(O)C[C@H](OC2CC(N(C)C)C(O)C(C)O2)c2c(O)c3c(c(O)c2[C@H]1OC1CC(N(C)C)C(O)C(C)O1)C(=O)c1cccc(O)c1C3=O (stereo partly drawn)	–	< 0.01
COC1(OC)CCC2C1C1CCC(OC)(OC)C21 (stereo not drawn)	> 50	–
NNC(=O)Nc1cccnc1	> 100	–
CC/C=C\CCC/C=C1/C(=O)C=C[C@@H]1C/C=C\CCCC(=O)OC	10.8	3.23
COc1ccc(-c2nc3sccn3c2/C(N)=N/C(=N)N)cc1OC	> 100	> 100
CCCCCCCCCCCOc1ccc(C(=O)C(=O)c2ccc(OCCCCCCCCCCC)c(OCCCCCCCCCCC)c2)cc1OCCCCCCCCCCC	> 100	–
Cn1cnc([N+](=O)[O-])c1Sc1nnc(-c2cccnc2)n1C	51.7	–
CCOC(=O)C1=C(C)NC(=S)NC1c1ccccc1 (stereo not drawn)	> 100	–
COC1=CC(=O)c2nc(-c3ccncc3)[nH]c2C1=O	> 100	> 100
O=C(/C=C/c1ccccc1)NC1C=Nc2ccc(Cl)cc2NC1=O (stereo not drawn)	> 100	–
COC1CCC2C(NS(=O)(=O)c3ccc(C)cc3)CCCC2O1 (stereo not drawn) (tested in a mixture with another compound)	> 34.5	–
CC(C)C/C(CC(=O)CCC(=O)Nc1ccccc1[N+](=O)[O-])=N\NC(=O)c1cc2ccccc2cc1O	> 100	–
O=C1/C(=C/c2cccc([N+](=O)[O-])c2)COc2ccc(O)cc21	4.64	2.02
O=C(O)c1ccccc1[Se][Se]c1ccccc1C(=O)O	> 100	–
COc1cc(CNc2cnc3cc(N)cc(N)c3n2)cc(OC)c1	39.8	17.3
O=C(O)CCc1coc2ccc(O)cc12	> 100	–

Compound	TGI [µM]	GI50 [µM]
Clc1cc2nsnc2c(Cl)n1	39.9	–
COc1cc(Cc2cnc(/N=C3\C(=O)N(CN4CCN(c5c(F)cc6c(=O)c(C(=O)O)cn(C7CC7)c6c5OC)CC4C)c4ccc(F)cc43)nc2N)cc(OC)c1OC (stereo not drawn)	42.9	18.1
Cc1cccc2c(=O)cc(-c3ccccc3)[nH]c12	> 100	–
CCCCOC(=O)C1OC(O[C@H]2CCC3(C)C(CCC4(C)C3CC=C3C5CC(C)(C)CCC5(C(=O)O)CC[C@]34C)C2(C)C)C(OC2OC(CO)C(O)C(O)C2O)C(OC2OC(CO)C(O)C(O)C2O)C1O (stereo partly drawn)	47.6	22.8
Cc1nc2ccccc2c(=O)n1-c1ccccc1I	> 100	–
CN1C(=O)C(C)(C)C2(SC(C)(C)C2(C)C)N(C)C1=S (stereo not drawn)	> 100	–
CC(=O)NNc1nc(C)c(C(=O)NNC(=O)C(=O)Nc2ccc(Cl)cc2)s1	> 100	–
CC1(C)CCc2c(c3c(c4c(=O)c(O)c(-c5ccc(O)cc5)oc24)OC(C)(C)CC3)O1	> 100	75.7
CN/N=C(/Cc1occc(=O)c1O)C(=O)Nc1ccccc1C	> 100	–
Cc1coc2c1CC1(C)C(CCC(O)C1C)C2 (stereo not drawn)	> 100	–
CC1=C(C(=O)NCc2ccccc2)C(/C=C/c2ccccc2)C(C(=O)NCc2ccccc2)=C(C)N1	> 100	–
CSc1nc2c(c(=O)[nH]1)N=C1c3ccccc3C(=O)C1C(c1ccccc1)N2 (stereo not drawn)	> 100	5.82
Cc1cc(C)nc(NS(=O)(=O)c2ccc(NC(=O)c3ccc(Cl)c4c(Nc5ccc(S(=O)(=O)Nc6nc(C)cc(C)n6)cc5)c5ccccc5nc34)cc2)n1	39.7	–
N#CC(c1ccc(Cl)cc1)c1cccc(C(C#N)c2ccc(Cl)cc2)n1 (stereo not drawn)	57	–
O=C1/C(=C/c2ccccc2)CN(C(=O)C(Cl)(Cl)Cl)C/C1=C\c1ccccc1	6.8	–
Cc1ccc(NC2=C(Cl)C(=O)N(Cc3ccccc3)C2=O)cc1O	> 100	34.3
C=C1C(=O)C23CC1CCC2C12CO[C@@H]4OCC(C)(CC[C@@H]1OC3=O)C42 (stereo partly drawn)	16.6	–

tested on: SK-OV-3 ovarian; test: NCI-60 cell line screen, 48 h

Compound	TGI	GI50 [µM]
CCN(CCO)CC1CCCC2CCCCC21 (stereo not drawn)	> 100 µM	–
CC[C@@]1(O)C[C@H](OC2CC(N(C)C)C(O)C(C)O2)c2c(O)c3c(c(O)c2[C@H]1OC1CC(N(C)C)C(O)C(C)O1)C(=O)c1cccc(O)c1C3=O (stereo partly drawn)	0.375 µM and 0.0643 µM	< 0.01
COC1(OC)CCC2C1C1CCC(OC)(OC)C21 (stereo not drawn)	> 50 µM	–
NNC(=O)Nc1cccnc1	> 100 µM	–
CC/C=C\CCC/C=C1/C(=O)C=C[C@@H]1C/C=C\CCCC(=O)OC	29.4 µM	14.9
COc1ccc(-c2nc3sccn3c2/C(N)=N/C(=N)N)cc1OC	> 100 µM	> 100
